≈ marks a conversion by molar mass, not a printed value. Where “and” joins values, the source holds several entries; their conditions need not be identical. Equal entries are not always repeated. Marks after values point to notes of the source that are not given here.
Key:
[1] = Solubility of the active in the receptor fluid; type: physicochemical; conditions: not told, aqueous with cosolvent or surfactant or cyclodextrin; 96 wt % PBS at pH 7.4 and 4 wt % hydroxyl propyl beta cyclodextrin
Experimental: The receptor fluid was degassed by filtering the receptor fluid through a ZapCap CR 0.2 μm membrane while pulling vacuum. The filtered receptor fluid was stirred for an additional 20 minutes while maintaining vacuum to ensure complete degassing.

786-O cell line [2] = assay: Renal cell adenocarcinoma xenograft: histology and immunohistochemistry (viable carcinoma size, necrosis, lymphohistiocytic infiltrate); type: in vivo, Sprague-Dawley Rag2; Il2rg null (SRG) rat
Text: Microscopic Examination: Tissues fixed with 10% NBF were embedded in paraffin. Each tumor was cut into 2-3 pieces and embedded and sectioned together.

786-O cell line [3] = assay: Rat xenograft model of human renal cell adenocarcinoma: tumor volume; type: in vivo, Sprague-Dawley Rag2; Il2rg null (SRG) rat; conditions: IV docetaxel, 3 weekly cycles
[4] = tested on: UM-UC-3 bladder cancer cell line; assay: Bladder cancer xenograft study: histology and immunohistochemistry (viable carcinoma size, necrosis, macrophage infiltrate, TLS, necropsy volume)
Experimental: Tumors were implanted with 1×10^7 cells (1004, volume) into right flank (PBS 1:1 with matrigel: BD356234). Tumor volume was determined with calipers. Formula: V=(r length*r width*r height)*π*4/3. Animals were weighed 2×/week. Tumor volumes were determined every 3 to 4 days following tumor implant (total of ˜20 measurements) and on day of euthanasia. Photo images of tumors were obtained at 2, 3 and 4 weeks post implantation and on day of euthanasia. Animals were euthanized once the tumor reached a size of 3,000 mm^3 or up to the point of significant tumor ulceration. At the time of euthanasia, tumors were isolated and halved. […] The second half of the tumor was fixed in formalin. Two H&E stained slides/tumor were prepared (up to 4 tumor/group were processed).
Tumor tissue was fixed before H&E and IHC staining. Bladder tissue sections were deparaffinized and processed by standard H&E and IHC staining. At least four tumors per treatment group were processed.

[5] = tested on: UM-UC-3 bladder cancer cell line; assay: Human bladder cancer (UM-UC-3) mouse xenograft study: tumor volume; type: in vivo, Hsd:Athymic Nude-Foxnlnu nude mice
Experimental: Tumor volume was determined with calipers. […] Animals were weighed 2×/week.
At day 18 after tumor implant, when average tumor size was between 50-325 mm^3, animals were sorted into five groups with equal average tumor sizes and were treated as shown in Table 25 below.
The second treatments (2nd cycle) occurred 7 days following first treatment (1st cycle) and third treatments (3rd cycle) occurred 14 days following the first treatment. The docetaxel solution IV was administered via the tail vein.
Vehicle (Control): Diluted 1 ml of the 1% Polysorbate 80/8% Ethanol in normal saline (0.9% Sodium Chloride for Injection) reconstitution solution with 1.5 mL of normal saline (0.9% Sodium Chloride for Injection, USP). […] Vigorously hand shook the vial with inversions for 1 minute. […] Allowed the suspension to sit undisturbed for at least 5 minutes to reduce entrapped air and foam. […] Vortexed to mix.

[6] = IV Docetaxel 3 cycles, 2 animals

Work on CC(=O)O[C@H]1C(=O)[C@@]2(C)[C@H]([C@H](OC(=O)c3ccccc3)[C@]3(O)C[C@H](OC(=O)[C@H](O)[C@@H](NC(=O)c4ccccc4)c4ccccc4)C(C)=C1C3(C)C)[C@]1(OC(C)=O)CO[C@@H]1C[C@@H]2O [paclitaxel] yielded a solubility [1] of roughly 0.4 µg/mL (≈ 0.468 µM).
In the case of CC(=O)O[C@@]12CO[C@@H]1C[C@H](O)[C@@]1(C)C(=O)[C@H](O)C3=C(C)[C@@H](OC(=O)[C@H](O)[C@@H](NC(=O)OC(C)(C)C)c4ccccc4)C[C@@](O)([C@@H](OC(=O)c4ccccc4)[C@H]21)C3(C)C [Doce], the “Percentage of tissue showing necrosis: number of animals with 5-50%” value (786-O cell line [2]; IV Doce, 2 animals) is reported as 2 and the “Lymphohistiocytic infiltrate density: number of animals graded Mild” value (786-O cell line [2]; IV Doce, 2 animals, H/E and CD11b staining) is reported as 2.
In the case of CC(=O)O[C@@]12CO[C@@H]1C[C@H](O)[C@@]1(C)C(=O)[C@H](O)C3=C(C)[C@@H](OC(=O)[C@H](O)[C@@H](NC(=O)OC(C)(C)C)c4ccccc4)C[C@@](O)([C@@H](OC(=O)c4ccccc4)[C@H]21)C3(C)C [Docetaxel, docetaxel], the “tumor growth vs vehicle control” value (786-O cell line [3]) is reported as “partial tumor growth inhibition compared to vehicle control”, the “Histology overview (H&E) vs vehicle control” value (786-O cell line [2]; Docetaxel (IV) 3 cycles, FIG. 93) is reported as “no difference” and the “morphologic and immunohistochemical appearance” value (786-O cell line [2]; IV docetaxel, two cases) is reported as “identical morphologic and immunohistochemical appearance to that seen in the control and IT vehicle groups”. For the same compound, the “Size of residual viable carcinoma on slide: number of animals with >10 mm” value (786-O cell line [2]; IV docetaxel, 2 animals) was 2, the “residual viable carcinoma nodules, size” value (786-O cell line [2]; both IV docetaxel animals) was “greater than 10 mm” and the “Histological overview, general observations (H&E)” value ([4]; Docetaxel Solution IV 3 cycles) was “many viable appearing tumor masses with some macrophage and occasional lymphocytic response along with some tumor necrosis”. For the same compound, the “Immunohistochemistry overview, F4/80 stain” value ([4]; FIG. 87, IV Docetaxel 3 cycles) was “Very little tumor cell destruction and few scattered mononuclear immune cells among vast number of viable tumor cells”, the “# containing at least one TLS” value [4, 6] was 0 and the “Maximum size of viable invasive carcinoma on the slide >10 mm (number of animals)” value [4, 6] was 2*. For the same compound, the “Percentage of tumor showing necrosis: number of animals with 11-50%” value [4, 6] was 1, the “Percentage of tumor showing necrosis: number of animals with 50-90%” value [4, 6] was 1 and the “Macrophage infiltrate density Mild (number of animals)” value ([4]; IV Docetaxel 3 cycles, H&E and CD68) was 2. The “Maximum tumor size on slide” value ([4]; IV Docetaxel 3 cycles, individual animals B1, B3) was 15 mm and 11 mm, the TLSs ([4]; IV docetaxel 3 cycles) was “There were no TLSs present” and the “tumor mass maximum dimension on the slide, individual cases” value ([4]; IV docetaxel 3 cycles) was 11 mm and 15 mm. The “geographic tumor cell necrosis, share of tumor area, individual cases” value ([4]; IV docetaxel 3 cycles, cases B1 and B3) was 11-50% and 50-90%, the “Tumor volume over time” value ([5]; Docetaxel IV 30 mg/kg, 3 weekly cycles, 61 days) was “decreased initially for dosages of nDoce IT 1 cycle and Docetaxel IV 3 cycles, but subsequently increased” and the “Effectiveness in relation to initial tumor size” value ([5]; Docetaxel IV 3 cycles) was “somewhat effective at treating small tumors, but not very effective in treating large tumors”.
